Source: article PMC4198181, “Gold(I) Complexes of 9-Deazahypoxanthine as Selective Antitumor and Anti-Inflammatory Agents” (PLoS ONE, 2014)

How the values were obtained:
HOS osteosarcoma cells = test: MTT in vitro cytotoxicity, HOS; type: cell-based, human; conditions: 24 h treatment, read-out: IC50±S.E., HOS
Experimental: (§1) In vitro cytotoxic activity was determined by the MTT assay in human breast adenocarcinoma (MCF7; ECACC no. 86012803), human osteosarcoma (HOS; ECACC no. 87070202), lung carcinoma (A549; ECACC no. 86012804), malignant melanoma (G361; ECACC no. 88030401), cervix epitheloid carcinoma (HeLa; ECACC no. 93021013), ovarian carcinoma (A2780; ECACC no. 93112519), cisplatin-resistant ovarian carcinoma (A2780R; […] ECACC no 105092802) cancer cell lines, purchased from European Collection of Cell Cultures (ECACC). […] The primary culture of human hepatocytes (HEP220, batch number HEP220819) was obtained from Biopredic International (France). The culture medium was Williams and HAM's F-12 (1∶1) supplemented with penicillin, streptomycin, ascorbic acid, linoleic acid, holo-transferin, ethanolamine, glucagon, insulin, dexamethasone, pyruvate, glucose, glutamine, amphotericin. The medium was enriched for plating with 2% foetal calf serum (v/v). The medium was exchanged for a serum-free medium the day after and the culture was stabilized for additional 24 h. Thereafter, the cells were ready for treatments. […] The MTT assay was performed spectrophotometrically at 540 nm (TECAN, Schoeller Instruments LLC). The cytotoxicity data were expressed as the percentage of viability, where 100% represented the treatments with vehicle (0.1% DMF or 0.1% DMSO). The cytotoxicity data from the cancer cell lines were acquired from three independent experiments (conducted in triplicate) using cells from different passages. The IC50 values were calculated from viability curves. The results are presented as arithmetic means±standard error of the mean (S.E.).

[1] = tested on: primary culture of human hepatocytes (HEP220); test: MTT in vitro cytotoxicity, primary human hepatocytes; type: cell-based; conditions: for IC50: 24 h treatment, MTT, read-out: IC50±S.E., HEP220 (healthy human hepatocytes)
Experimental: as §1

[2] = tested on: THP-1 monocytic leukaemia cells; test: WST-1 in vitro cytotoxicity, THP-1; type: cell-based, human; conditions: 24 h treatment, WST-1, 0.16–10.00 µM; read-out: IC50±S.E., THP-1
Experimental: Before the in vitro anti-inflammatory testing, in vitro cytotoxicity on human monocytic leukaemia cells (THP-1, ECACC no. 88081201) was determined using the WST-1 assay. The THP-1 cells (floating monocytes, 500 000 cells/mL) were incubated in 100 µL of the serum-free RPMI 1640 medium and seeded into 96-well plates in triplicate at 37°C. Measurements were taken 24 h after the treatment with the tested compounds dissolved in 0.1% DMSO in the concentration range of 0.16–10.00 µM. Viability was determined by the WST-1 test according to the manufacturer's manual. The amount of the formed formazan (which correlates to the number of metabolically active cells in the culture) was calculated as a percentage of the control cells, which were treated only with 0.1% DMSO and was set-up as 100%. The IC50 values of the tested compounds were calculated from the obtained data. The WST-1 assay was performed spectrophotometrically at 440 nm (FLUOstar Omega, BMG Labtech).
The cytotoxicity data were expressed as the percentage of viability, where 100% represented the treatments with vehicle (0.1% DMF or 0.1% DMSO). The cytotoxicity data from the cancer cell lines were acquired from three independent experiments (conducted in triplicate) using cells from different passages. The IC50 values were calculated from viability curves. The results are presented as arithmetic means±standard error of the mean (S.E.). The significance of the differences between the results was assessed by the ANOVA analysis with p<0.05 considered to be significant (QC Expert 3.2, Statistical software, TriloByte Ltd., Pardubice, Czech Republic).

[3] = tested on: A2780 ovarian carcinoma cells; test: MTT in vitro cytotoxicity, A2780; type: cell-based, human; conditions: 24 h treatment, read-out: IC50±S.E., A2780
Experimental: as §1

TNF-α mRNA = test: TNF-α gene expression by RT-qPCR in LPS-stimulated THP-1 macrophages; type: cell-based, human; conditions: 300 nM, 2 h after LPS, normalised to β-actin
Experimental: (§2) For the determination of biological activity, we used the human monocytic leukaemia cell line THP-1 (ECACC, Salisbury, UK). The cells were cultivated at 37°C in the RPMI 1640 medium supplemented with 2 mM L-glutamine, 10% FBS, 100 U/mL of penicillin and 100 µg/mL of streptomycin in a humidified atmosphere containing 5% CO2. Stabilized cells (3rd–15th passage) were split into microtitration plates to get a concentration of 500 000 cells/mL and the differentiation to macrophages was induced by phorbol myristate acetate (PMA) dissolved in dimethyl sulfoxide (DMSO) at the final concentration of 50 ng/ml, and the cells were incubated for 24 h. In comparison with monocytes, differentiated macrophages tend to adhere to the bottoms of the cultivation plates. For next 24 h the cells were incubated with a fresh complete RPMI medium, i.e. containing antibiotics and FBS, without PMA. The medium was then aspirated, and the cells were washed with PBS and cultivated for next 24 hours in serum-free RPMI 1640 medium. These prepared macrophages were used for the detection of inflammatory response.
(§3) In the order to evaluate the expression of TNF-α, IL-1β, and β-actin mRNA, total RNA was isolated directly from the LPS-stimulated THP-1 cells. THP-1 macrophages were pretreated with compounds 2, 5, and Auranofin at the concentration of 300 nM or the vehicle (0.1% DMSO) only. After 1 h of the incubation, the inflammatory response was induced by LPS [except for the control cells (CTRL)]. After 2 h of the incubation with LPS, the medium was aspirated and the total RNA was isolated directly from the cells in cultivation plates using a RealTime Ready Cell Lysis Kit (Roche), according to the manufacturer's instructions.
(§4) The gene expression was quantified by two-step reverse-transcription quantitative (real-time) PCR (RT-qPCR). The reverse transcription step was performed by Transcriptor Universal cDNA Master using cell lysate as a template. […] The results were normalized to the amount of ROX reference dye, and the change in gene expression was determined by the 2^−ΔΔCT method. […]

[4] = tested on: 22Rv1 prostate carcinoma cells; test: MTT in vitro cytotoxicity, 22Rv1; type: cell-based, human; conditions: 24 h treatment, read-out: IC50±S.E., 22Rv1
Experimental: as §1

IL-1β mRNA = test: IL-1β gene expression by RT-qPCR in LPS-stimulated THP-1 macrophages; type: cell-based, human; conditions: 300 nM, 2 h after LPS, normalised to β-actin
Experimental: as §2, §3, §4

Row | Compound | IC50 (HOS osteosarcoma cells) | IC50 [1] | times lower cytotoxicity against healthy human cells (HEP220) than cancer cell lines ([1]; complex 2: MCF7 vs. HEP220) | IC50 [2] | IC50 [3] | effect on TNF-α mRNA transcription (TNF-α mRNA) | IC50 [4] | effect on IL-1β mRNA transcription (IL-1β mRNA)
1 | CC(C)Oc1ncnc2cc[n]([Au])c12.c1ccc(P(c2ccccc2)c2ccccc2)cc1 [complex 2, [Au(L2)(PPh3)]] | 0.9 ± 0.2 µM | 18.5 ± 1.5 µM | ~30 times | 0.8 ± 0.1 µM | 4 ± 0.2 µM | significantly reduce the transcription | 4 ± 0.1 µM | significantly reduce the transcription
2 | [Au][n]1ccc2ncnc(OCCc3ccccc3)c21.c1ccc(P(c2ccccc2)c2ccccc2)cc1 [complex 5] | 2.9 ± 0.1 µM | 19 ± 1.8 µM |  | 1.4 ± 0.1 µM | 4.4 ± 0.3 µM | significantly reduce the transcription | 3.7 ± 0.1 µM | significantly reduce the transcription
